# Assays:
# Type in all cases: biochemical
# [1] = target: T1, serine racemase (mouse SR) (Mus musculus, UniProt Q9QZX7); assay: enzymatic resolution of racemic β-EHAsp by recombinant enzyme
# T1 construct: gene Srr; N-terminal His-tag, recombinant from E. coli
# T1 sequence (Q9QZX7 1-339): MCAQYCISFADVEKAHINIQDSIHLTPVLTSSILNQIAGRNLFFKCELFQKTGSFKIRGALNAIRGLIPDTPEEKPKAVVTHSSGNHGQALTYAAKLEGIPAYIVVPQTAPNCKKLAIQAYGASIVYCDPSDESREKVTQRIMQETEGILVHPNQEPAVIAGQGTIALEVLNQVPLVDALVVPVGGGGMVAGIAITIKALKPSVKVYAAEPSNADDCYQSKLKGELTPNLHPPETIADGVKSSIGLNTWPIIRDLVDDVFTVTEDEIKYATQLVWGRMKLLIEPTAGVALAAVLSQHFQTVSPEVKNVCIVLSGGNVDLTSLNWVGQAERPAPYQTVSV
# [2] = target: T1, serine racemase (mouse SR); assay: LDH-coupled L-Ser dehydration assay, steady-state kinetics
# [3] = target: T2, asparaginase (AnsA; printed AsnA in the results, asparaginase 1) (Escherichia coli, UniProt P0A962); assay: HPLC of urinary amino acids treated with purified enzyme
# T2 construct: N-terminal His-tagged protein
# T2 sequence (P0A962 1-338): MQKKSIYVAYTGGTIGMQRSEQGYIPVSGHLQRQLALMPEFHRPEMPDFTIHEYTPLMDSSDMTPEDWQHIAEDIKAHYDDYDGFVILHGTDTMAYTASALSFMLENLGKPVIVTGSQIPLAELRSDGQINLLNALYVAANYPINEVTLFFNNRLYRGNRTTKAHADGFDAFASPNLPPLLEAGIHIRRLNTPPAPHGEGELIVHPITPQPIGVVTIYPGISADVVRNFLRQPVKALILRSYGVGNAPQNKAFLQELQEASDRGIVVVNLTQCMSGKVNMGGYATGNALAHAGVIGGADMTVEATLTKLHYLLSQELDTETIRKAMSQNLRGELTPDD
# [4] = target: T3, D-serine dehydratase (Dsd1p) (Saccharomyces cerevisiae, UniProt P53095); assay: HPLC and LC-ESI-MS of urinary amino acid degradation by purified enzyme
# T3 construct: gene DSD1; N-terminal His-tagged protein
# T3 sequence (P53095 1-428): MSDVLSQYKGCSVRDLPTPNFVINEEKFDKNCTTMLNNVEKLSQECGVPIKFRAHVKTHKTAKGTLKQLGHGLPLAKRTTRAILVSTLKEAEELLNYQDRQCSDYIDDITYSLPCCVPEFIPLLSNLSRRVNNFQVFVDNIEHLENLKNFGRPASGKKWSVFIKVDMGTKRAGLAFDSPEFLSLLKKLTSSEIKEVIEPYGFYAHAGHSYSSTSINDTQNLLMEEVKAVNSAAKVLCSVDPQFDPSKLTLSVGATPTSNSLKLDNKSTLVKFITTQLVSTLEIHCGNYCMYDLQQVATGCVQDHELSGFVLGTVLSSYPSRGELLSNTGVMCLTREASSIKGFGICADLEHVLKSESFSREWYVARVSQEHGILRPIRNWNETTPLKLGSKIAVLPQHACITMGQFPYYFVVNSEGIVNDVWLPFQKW
# [5] = target: T4, asparagine synthase (AsnA) (Escherichia coli, UniProt P00963); assay: preparative enzymatic amidation, HPLC
# T4 construct: N-terminal His-tagged protein
# T4 sequence (P00963 1-330): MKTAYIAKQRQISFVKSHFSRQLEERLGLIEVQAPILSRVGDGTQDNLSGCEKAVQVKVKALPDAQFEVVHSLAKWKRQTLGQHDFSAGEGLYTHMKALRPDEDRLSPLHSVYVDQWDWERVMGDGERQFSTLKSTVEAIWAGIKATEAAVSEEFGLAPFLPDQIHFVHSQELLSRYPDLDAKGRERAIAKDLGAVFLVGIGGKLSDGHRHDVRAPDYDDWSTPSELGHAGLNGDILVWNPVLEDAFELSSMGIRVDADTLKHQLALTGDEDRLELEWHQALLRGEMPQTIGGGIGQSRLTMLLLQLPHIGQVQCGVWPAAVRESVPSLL
structure (smiles),measurement,setting,value
N[C@@H](C(=O)O)[C@H](O)C(=O)O (racemic) [D-β-EHAsp],enzymatic resolution of racemic β-EHAsp by recombinant enzyme,[1],could efficiently eliminate D-β-EHAsp from the racemic mixture
"NC(=O)[C@H](O)[C@H](N)C(=O)O (stereo in doubt) [L-β-EHAsn, L-erythro-β-hydroxyasparagine]",Ki,[2],40 ± 6 µM
same,HPLC of urinary amino acids treated with purified enzyme,[3],Urinary β-OH-Asn could be converted into the corresponding isomer of β-hydroxy aspartate (β-OH-Asp) using the E. coli asparaginase
same,HPLC and LC-ESI-MS of urinary amino acid degradation by purified enzyme,[4],"the urinary Dsd1p substrate was identified as the (2S, 3S)-isomer of β-OH-Asn (L-β-EHAsn)"
N[C@H](C(=O)O)[C@@H](O)C(=O)O [L-β-EHAsp],"preparative enzymatic amidation, HPLC",[5],L-β-EHAsp was further converted to L-β-EHAsn by the action of E. coli AsnA

# — publication PMC8071972, “Urinary L-erythro-β-hydroxyasparagine—a novel serine racemase inhibitor and substrate of the Zn^2+-dependent D-serine dehydratase” (Bioscience Reports, 2021)
